# Measurements taken from PMC10533412, “Phosphoantigens glue butyrophilin 3A1 and 2A1 to activate Vγ9Vδ2 T cells” (Nature, 2023).
# How the values were obtained:
# [1] = system: Vγ9Vδ2 T cells; details: cited from earlier work
# [2] = system: BTN2A−/− MIA PaCa-2 (BTN2A1/BTN2A2 KO) cells; test: TNF secretion by Vγ9Vδ2 T cells co-cultured with zoledronate-treated BTN2A−/− MIA PaCa-2 cells expressing BTN2A1 variants; format: cell-based, human; details: n=6
# Method: (§1) BTN2A^−/− MIA PaCa-2 (BTN2A1/BTN2A2 KO) cells were plated at 1.0 × 10^4 cells per well in 96-well plates 1 day before transfection. […] The medium was then aspirated and cells were washed four times with PBS at room temperature. Vγ9Vδ2 T cells (1.0 × 10^5 cells per well) were then added and cocultured with MIA PaCa-2 cells, and culture supernatants were collected after 16 h and assayed for TNF levels using a TNF human uncoated ELISA kit (Invitrogen). The assay of CHO-K1 cells (infected with lentivirus of BTN3A1 and CD80) was performed according to the same methods as for the MIA PaCa-2 cells[22],[23].
# [3] = system: BTN2A−/− MIA PaCa-2 (BTN2A1/BTN2A2 KO) cells; test: IFNγ release from Vγ9Vδ2 T cells in response to zoledronate stimulation of BTN2A−/− MIA PaCa-2 cells expressing BTN2A1 variants; format: cell-based, human; set-up: unit not given here; details: 6 values
# [4] = system: BTN3A1+CD80+ CHO-K1 cells; test: TNF secretion by Vγ9Vδ2 T cells co-cultured with zoledronate-treated BTN3A1+CD80+ CHO-K1 cells; format: cell-based, Chinese hamster; details: Fig. 3c, ii
# Method: as §1
# [5] = system: MIA PaCa-2 cells; test: AFM-SCFS binding force between a Vγ9Vδ2 T cell and a MIA PaCa-2 cell; format: cell-based, human; set-up: binding force, Mean, Fig. 6b / binding force, Median, Fig. 6b: unit not given here; details: second panel (Ctrl, ZOL, HMBPP-15, HMBPP-15+ZOL)
# Method: The AFM-SCFS analysis procedure was performed using the JPK CellHesion unit as previously described, and closely followed our previously reported protocol for APCs[4]. […] The glass disks were quickly transferred to an AFM adapter with immediate addition of 1 ml of fresh medium (DMEM: 10% FBS and 1% penicillin–streptomycin). […] The raw data were normalized to the background readings. Blank readings for each set of affinity measurements (Vγ9Vδ2 T cells touching the glass surface) were collected immediately before each assay to perform background subtraction. All data were analysed using the JPK image processing software. […] The following steps were the same as described above.
smiles,measurement,setting,value
"Cc1ccc(C/C(=C\COP(=O)(O)OP(=O)(O)O)CO)cc1 [HMBPP-08, (E)-4-hydroxy-3-(4-methylbenzyl)but-2-enyl diphosphate]",γδ T cell activation,[1],do not efficiently activate
O=P(O)(O)C(O)(Cn1ccnc1)P(=O)(O)O [Zoledronate],"TNF secretion by Vγ9Vδ2 T cells, Mean","[2]; Fig. 3c, i, zoledronate-treated cells expressing BTN2A1 D455G/E457R",6.214
same,"TNF secretion by Vγ9Vδ2 T cells, Mean","[2]; Fig. 3c, i, zoledronate-treated cells expressing BTN2A1 R477A",8.398
same,"TNF secretion by Vγ9Vδ2 T cells, Mean","[2]; Fig. 3c, i, zoledronate-treated cells expressing BTN2A1 T510A",6.658
same,"TNF secretion by Vγ9Vδ2 T cells, Mean","[2]; Fig. 3c, i, zoledronate-treated cells expressing BTN2A1 T510M",7.401
same,"TNF secretion by Vγ9Vδ2 T cells, Mean","[2]; Fig. 3c, i, zoledronate-treated cells expressing BTN2A1 V511A",7.427
same,"TNF secretion by Vγ9Vδ2 T cells, Mean","[2]; Fig. 3c, i, zoledronate-treated cells expressing BTN2A1 V511D",6.982
same,"TNF secretion by Vγ9Vδ2 T cells, Mean","[2]; Fig. 3c, i, zoledronate-treated cells expressing BTN2A1 V511W",7.617
same,"TNF secretion by Vγ9Vδ2 T cells, Mean","[2]; Fig. 3c, i, zoledronate-treated cells expressing BTN2A1 WT",158.2
same,"TNF secretion by Vγ9Vδ2 T cells, Mean","[2]; Fig. 3c, i, zoledronate-treated cells expressing BTN2A1 ∆C",9.364
same,"TNF secretion by Vγ9Vδ2 T cells, Mean","[2]; Fig. 3c, i, zoledronate-treated cells, NT",7.859
same,"TNF secretion by Vγ9Vδ2 T cells, Mean","[2]; Fig. 3d, zoledronate-treated cells expressing BTN2A1 H471G/I472A/Y473A",9.274
same,"TNF secretion by Vγ9Vδ2 T cells, Mean","[2]; Fig. 3d, zoledronate-treated cells expressing BTN2A1 R449A/R469A",16.58
same,"TNF secretion by Vγ9Vδ2 T cells, Mean","[2]; Fig. 3d, zoledronate-treated cells expressing BTN2A1 WT",182.7
same,"TNF secretion by Vγ9Vδ2 T cells, Mean","[2]; Fig. 3d, zoledronate-treated cells expressing BTN2A1 Y464A-T474A",9.364
same,"TNF secretion by Vγ9Vδ2 T cells, Mean","[2]; Fig. 3d, zoledronate-treated cells expressing BTN2A1 ∆C",0.6146
same,"TNF secretion by Vγ9Vδ2 T cells, Mean","[2]; Fig. 3d, zoledronate-treated cells, NT",9.612
same,Mean (Extended Data Fig. 7b),[3]; NT cells,2.056
same,Mean (Extended Data Fig. 7b),[3]; cells expressing BTN2A1 E286G,48.61
same,Mean (Extended Data Fig. 7b),[3]; cells expressing BTN2A1 E300G,78.93
same,Mean (Extended Data Fig. 7b),[3]; cells expressing BTN2A1 E307G,40.34
same,Mean (Extended Data Fig. 7b),[3]; cells expressing BTN2A1 E316G,128.5
same,Mean (Extended Data Fig. 7b),[3]; cells expressing BTN2A1 F324G,95.24
same,Mean (Extended Data Fig. 7b),[3]; cells expressing BTN2A1 K276G,55.14
same,Mean (Extended Data Fig. 7b),[3]; cells expressing BTN2A1 K283G,42.21
same,Mean (Extended Data Fig. 7b),[3]; cells expressing BTN2A1 K304G,117
same,Mean (Extended Data Fig. 7b),[3]; cells expressing BTN2A1 K311G,59.44
same,Mean (Extended Data Fig. 7b),[3]; cells expressing BTN2A1 L272G,81.83
same,Mean (Extended Data Fig. 7b),[3]; cells expressing BTN2A1 L279G,16.84
same,Mean (Extended Data Fig. 7b),[3]; cells expressing BTN2A1 L294G,44.72
same,Mean (Extended Data Fig. 7b),[3]; cells expressing BTN2A1 L297G,44.28
same,Mean (Extended Data Fig. 7b),[3]; cells expressing BTN2A1 L314G,23.31
same,Mean (Extended Data Fig. 7b),[3]; cells expressing BTN2A1 L318G,13.17
same,Mean (Extended Data Fig. 7b),[3]; cells expressing BTN2A1 L325C/A327C,59.39
same,Mean (Extended Data Fig. 7b),[3]; cells expressing BTN2A1 L325G,7.962
same,Mean (Extended Data Fig. 7b),[3]; cells expressing BTN2A1 R290A,84.46
same,Mean (Extended Data Fig. 7b),[3]; cells expressing BTN2A1 W320A,70.37
same,Mean (Extended Data Fig. 7b),[3]; cells expressing BTN2A1 WT,151.4
same,"TNF secretion by Vγ9Vδ2 T cells, Mean","[4]; zoledronate-treated cells expressing BTN2A1 D455G/E457R, n=6",11.14
same,"TNF secretion by Vγ9Vδ2 T cells, Mean","[4]; zoledronate-treated cells expressing BTN2A1 R477A, n=6",8.53
same,"TNF secretion by Vγ9Vδ2 T cells, Mean","[4]; zoledronate-treated cells expressing BTN2A1 T510A, n=6",7.472
same,"TNF secretion by Vγ9Vδ2 T cells, Mean","[4]; zoledronate-treated cells expressing BTN2A1 T510M, n=6",7.874
same,"TNF secretion by Vγ9Vδ2 T cells, Mean","[4]; zoledronate-treated cells expressing BTN2A1 V511A, n=6",10.17
same,"TNF secretion by Vγ9Vδ2 T cells, Mean","[4]; zoledronate-treated cells expressing BTN2A1 V511D, n=6",6.367
same,"TNF secretion by Vγ9Vδ2 T cells, Mean","[4]; zoledronate-treated cells expressing BTN2A1 V511W, n=6",8.466
same,"TNF secretion by Vγ9Vδ2 T cells, Mean","[4]; zoledronate-treated cells expressing BTN2A1 WT, n=5",465.4
same,"TNF secretion by Vγ9Vδ2 T cells, Mean","[4]; zoledronate-treated cells expressing BTN2A1 ∆C, n=6",7.982
same,"TNF secretion by Vγ9Vδ2 T cells, Mean","[4]; zoledronate-treated cells, NT, n=6",20.41
same,"binding force, Mean, Fig. 6b",[5],1524
same,"binding force, Median, Fig. 6b",[5],1525
